Measurements reported in paper PMC5218480 (PLoS ONE, 2017).

Test system: MV-4-11 cells
Assay: Gene expression microarray analysis (Affymetrix PrimeView) and GSEA
Assay type: cell-based, human
Set-up: RFU PODN (11730768_x_at) / Fold change /veh PODN (11730768_x_at) / RFU LINC00158 (11744669_a_at) / Fold change /veh LINC00158 (11744669_a_at) / RFU DUSP10 (11751237_a_at) / Fold change /veh DUSP10 (11751237_a_at) / RFU ID3 (11757404_x_at) / Fold change /veh ID3 (11757404_x_at) / RFU PLEKHG5 (11737974_s_at) / Fold change /veh PLEKHG5 (11737974_s_at) / RFU LRRC4B (11730491_at) / Fold change /veh LRRC4B (11730491_at) / RFU GIMAP4 (11747438_a_at) / Fold change /veh GIMAP4 (11747438_a_at) / RFU KRT8 (11758183_x_at) / Fold change /veh KRT8 (11758183_x_at) / RFU CNN1 (11734310_a_at) / Fold change /veh CNN1 (11734310_a_at) / RFU VPS37D (11726825_at) / Fold change /veh VPS37D (11726825_at) / RFU C10orf10 (11716522_x_at) / Fold change /veh C10orf10 (11716522_x_at) / RFU KIR2DL2 /// KIR2DL4 /// KIR2DL5A /// KIR2DL5B /// KIR2DS1 /// KIR2DS2 /// KIR2DS3 /// KIR2DS4 /// KIR3DL3 /// KIR3DL3 /// KIR3DS1 (11738374_at) / Fold change /veh KIR2DL2 /// KIR2DL4 /// KIR2DL5A /// KIR2DL5B /// KIR2DS1 /// KIR2DS2 /// KIR2DS3 /// KIR2DS4 /// KIR3DL3 /// KIR3DL3 /// KIR3DS1 (11738374_at) / RFU C1QL1 (11718748_at) / Fold change /veh C1QL1 (11718748_at) / RFU TMPRSS4 (11747572_a_at) / Fold change /veh TMPRSS4 (11747572_a_at) / RFU HAMP (11756126_x_at) / Fold change /veh HAMP (11756126_x_at) / RFU RNFT2 (11725882_a_at) / Fold change /veh RNFT2 (11725882_a_at) / RFU NR4A2 (11747474_a_at) / Fold change /veh NR4A2 (11747474_a_at) / RFU ABCC12 (11746883_a_at) / Fold change /veh ABCC12 (11746883_a_at) / RFU TMEM136 (11760407_x_at) / Fold change /veh TMEM136 (11760407_x_at) / RFU CLDN22 /// WWC2 (11732394_at) / Fold change /veh CLDN22 /// WWC2 (11732394_at) / RFU HLA-DPB1 (11760878_x_at) / Fold change /veh HLA-DPB1 (11760878_x_at) / RFU SPINT1 (11716480_a_at) / Fold change /veh SPINT1 (11716480_a_at) / RFU GAP43 (11754022_s_at) / Fold change /veh GAP43 (11754022_s_at) / RFU A4GNT (11735810_at) / Fold change /veh A4GNT (11735810_at) / RFU PRB3 (11715151_x_at) / Fold change /veh PRB3 (11715151_x_at) / RFU TUBB4B (11761932_at) / Fold change /veh TUBB4B (11761932_at) / RFU CAPN14 (11732068_a_at) / Fold change /veh CAPN14 (11732068_a_at) / RFU TMCC2 (11721928_a_at) / Fold change /veh TMCC2 (11721928_a_at) / RFU IRGQ (11745062_a_at) / Fold change /veh IRGQ (11745062_a_at) / RFU FAM174B (11720279_a_at) / Fold change /veh FAM174B (11720279_a_at) / RFU TMPRSS4 (11748680_a_at) / Fold change /veh TMPRSS4 (11748680_a_at) / RFU FAM212B (11763350_a_at) / Fold change /veh FAM212B (11763350_a_at) / RFU PLEKHG5 (11743358_a_at) / Fold change /veh PLEKHG5 (11743358_a_at) / RFU ZSCAN30 (11745921_a_at) / Fold change /veh ZSCAN30 (11745921_a_at) / RFU CMKLR1 (11741424_a_at) / Fold change /veh CMKLR1 (11741424_a_at) / RFU LOC101060620 /// MAPK8IP1 (11723275_at) / Fold change /veh LOC101060620 /// MAPK8IP1 (11723275_at) / RFU SPTSSB (11747773_x_at) / Fold change /veh SPTSSB (11747773_x_at) / RFU PRSS12 (11739890_at) / Fold change /veh PRSS12 (11739890_at) / RFU BIN1 (11741810_x_at) / Fold change /veh BIN1 (11741810_x_at) / RFU WNT11 (11732464_a_at) / Fold change /veh WNT11 (11732464_a_at) / RFU C10orf10 (11716521_a_at) / Fold change /veh C10orf10 (11716521_a_at) / RFU C5orf56 (11738089_at) / Fold change /veh C5orf56 (11738089_at) / RFU CYB561 (11721691_x_at) / Fold change /veh CYB561 (11721691_x_at) / RFU ANKRD19P (11752326_a_at) / Fold change /veh ANKRD19P (11752326_a_at) / RFU OR2T12 /// OR2T33 /// OR2T8 (11738714_s_at) / Fold change /veh OR2T12 /// OR2T33 /// OR2T8 (11738714_s_at) / RFU VCAN (11748164_a_at) / Fold change /veh VCAN (11748164_a_at) / RFU JSRP1 (11732532_at) / Fold change /veh JSRP1 (11732532_at) / RFU KRTAP10-11 (11738290_x_at) / Fold change /veh KRTAP10-11 (11738290_x_at) / RFU MYO3A (11730013_a_at) / Fold change /veh MYO3A (11730013_a_at) / RFU EBF3 (11725865_a_at) / Fold change /veh EBF3 (11725865_a_at) / RFU CAMK2N1 (11719241_x_at) / Fold change /veh CAMK2N1 (11719241_x_at) / RFU C5orf56 (11738088_a_at) / Fold change /veh C5orf56 (11738088_a_at) / RFU OLFML3 (11715873_a_at) / Fold change /veh OLFML3 (11715873_a_at) / RFU LOC100653217 /// NTM (11731650_a_at) / Fold change /veh LOC100653217 /// NTM (11731650_a_at) / RFU MAPK11 (11762145_a_at) / Fold change /veh MAPK11 (11762145_a_at) / RFU FIZ1 (11724087_x_at) / Fold change /veh FIZ1 (11724087_x_at) / RFU OASL (11726364_x_at) / Fold change /veh OASL (11726364_x_at) / RFU SOX15 (11748057_x_at) / Fold change /veh SOX15 (11748057_x_at) / RFU CD79A (11719716_a_at) / Fold change /veh CD79A (11719716_a_at) / RFU HIST1H1D (11736915_at) / Fold change /veh HIST1H1D (11736915_at) / RFU CASKIN2 (11723855_a_at) / Fold change /veh CASKIN2 (11723855_a_at) / RFU LOC730098 (11760151_x_at) / Fold change /veh LOC730098 (11760151_x_at) / RFU OR4N2 (11742367_at) / Fold change /veh OR4N2 (11742367_at) / RFU PRRT2 (11749266_a_at) / Fold change /veh PRRT2 (11749266_a_at) / RFU SNX32 (11753110_a_at) / Fold change /veh SNX32 (11753110_a_at) / RFU CDHR5 (11726645_a_at) / Fold change /veh CDHR5 (11726645_a_at) / RFU RCAN1 (11760418_a_at) / Fold change /veh RCAN1 (11760418_a_at) / RFU FAM167A (11723789_a_at) / Fold change /veh FAM167A (11723789_a_at) / RFU FAM26E (11764081_at) / Fold change /veh FAM26E (11764081_at) / RFU ISYNA1 (11749810_s_at) / Fold change /veh ISYNA1 (11749810_s_at) / RFU ACY1 (11761880_at) / Fold change /veh ACY1 (11761880_at) / RFU 11764098_at / Fold change /veh 11764098_at / RFU SAMD14 (11745864_x_at) / Fold change /veh SAMD14 (11745864_x_at) / RFU NPB (11741838_a_at) / Fold change /veh NPB (11741838_a_at) / RFU TMPRSS6 (11731388_a_at) / Fold change /veh TMPRSS6 (11731388_a_at) / RFU KRTAP10-2 (11738614_at) / Fold change /veh KRTAP10-2 (11738614_at) / RFU ARHGAP8 /// PRR5-ARHGAP8 (11727945_x_at) / Fold change /veh ARHGAP8 /// PRR5-ARHGAP8 (11727945_x_at) / RFU KRTAP5-7 /// NADSYN1 (11734609_at) / Fold change /veh KRTAP5-7 /// NADSYN1 (11734609_at) / RFU RASL12 (11751679_a_at) / Fold change /veh RASL12 (11751679_a_at) / RFU CDKN2B (11736163_a_at) / Fold change /veh CDKN2B (11736163_a_at) / RFU PRF1 (11729649_at) / Fold change /veh PRF1 (11729649_at) / RFU, ZNF638 /// ZNF638-IT1 / Fold change vs veh, ZNF638 /// ZNF638-IT1 / RFU, PANK3 / Fold change vs veh, PANK3 / RFU, SH3YL1 / Fold change vs veh, SH3YL1 / RFU, ZEB2 / Fold change vs veh, ZEB2 / RFU, NRIP1 / Fold change vs veh, NRIP1 / RFU, PTTG1IP / Fold change vs veh, PTTG1IP / RFU, CAPN2 / Fold change vs veh, CAPN2 / RFU, MED14 / Fold change vs veh, MED14 / RFU, SNORA58 / Fold change vs veh, SNORA58 / RFU, C1orf63 / Fold change vs veh, C1orf63 / RFU, LRRFIP1 / Fold change vs veh, LRRFIP1 / RFU, NDUFAF7 / Fold change vs veh, NDUFAF7 / RFU, SLC12A2 / Fold change vs veh, SLC12A2 / RFU, IBTK / Fold change vs veh, IBTK / RFU, ESF1 / Fold change vs veh, ESF1 / Fold change vs veh, TMEM50B / RFU, TAOK1 / Fold change vs veh, TAOK1 / RFU, ACBD3 / Fold change vs veh, ACBD3 / RFU, TMA16 / Fold change vs veh, TMA16 / RFU, RWDD3 / Fold change vs veh, RWDD3 / RFU, BCAT1 / Fold change vs veh, BCAT1 / RFU, EDEM3 / Fold change vs veh, EDEM3 / RFU, TMEM33 / Fold change vs veh, TMEM33 / RFU, WDR75 / Fold change vs veh, WDR75 / RFU, AHCTF1 / Fold change vs veh, AHCTF1 / RFU, TFRC / Fold change vs veh, TFRC / RFU, ZDHHC17 / Fold change vs veh, ZDHHC17 / RFU, NOM1 / Fold change vs veh, NOM1 / RFU, ARL8B / Fold change vs veh, ARL8B / RFU, ZBTB11 / Fold change vs veh, ZBTB11 / RFU, TAMM41 / Fold change vs veh, TAMM41 / RFU, KIAA1704 /// LOC100996395 / Fold change vs veh, KIAA1704 /// LOC100996395 / RFU, ING1 / Fold change vs veh, ING1 / RFU, TRMT61B / Fold change vs veh, TRMT61B / RFU, FUBP3 / Fold change vs veh, FUBP3 / RFU, TP53 / Fold change vs veh, TP53 / RFU, TNKS2 / Fold change vs veh, TNKS2 / RFU, ZFP14 / Fold change vs veh, ZFP14 / RFU, ACTR2 / Fold change vs veh, ACTR2 / RFU, PPP3R1 / Fold change vs veh, PPP3R1 / RFU, PIK3R1 / Fold change vs veh, PIK3R1 / RFU, HNRNPA1 / Fold change vs veh, HNRNPA1 / RFU, RNF170 / Fold change vs veh, RNF170 / RFU, ZNF28 / Fold change vs veh, ZNF28 / RFU, RNGTT / Fold change vs veh, RNGTT / RFU, OGT / Fold change vs veh, OGT / RFU, BRD1 / Fold change vs veh, BRD1 / RFU, MARS / Fold change vs veh, MARS / RFU, ZNF655 / Fold change vs veh, ZNF655 / RFU, FAHD1 / Fold change vs veh, FAHD1 / RFU, BDP1 / Fold change vs veh, BDP1 / RFU, LRRCC1 / Fold change vs veh, LRRCC1 / RFU, ARID1A / Fold change vs veh, ARID1A / RFU, ZNF146 / Fold change vs veh, ZNF146 / RFU, ZNF330 / Fold change vs veh, ZNF330 / RFU, GPN3 / Fold change vs veh, GPN3 / RFU, C9orf123 / Fold change vs veh, C9orf123 / RFU, N4BP2L2 / Fold change vs veh, N4BP2L2 / RFU, ARFIP1 / Fold change vs veh, ARFIP1 / RFU, FAM179B / Fold change vs veh, FAM179B / RFU, BCL10 / Fold change vs veh, BCL10 / RFU, UHRF1BP1L / Fold change vs veh, UHRF1BP1L / RFU, BET1 / Fold change vs veh, BET1 / RFU, CNOT2 / Fold change vs veh, CNOT2 / RFU, ZNF268 / Fold change vs veh, ZNF268 / Fold change vs veh, ZNF507 / RFU, DGCR2 / Fold change vs veh, DGCR2 / RFU, WDSUB1 / Fold change vs veh, WDSUB1 / Fold change vs veh, HSP90B1 /// MIR3652 / RFU, ADSS / Fold change vs veh, ADSS / RFU, GK / Fold change vs veh, GK / RFU, ZNF148 / Fold change vs veh, ZNF148 / RFU, TAF9 / Fold change vs veh, TAF9 / RFU, SLC1A5 / Fold change vs veh, SLC1A5 / RFU, SLMO2 / Fold change vs veh, SLMO2 / RFU, ABCC4 / Fold change vs veh, ABCC4 / RFU, LOC101060439 /// RAP1B / Fold change vs veh, LOC101060439 /// RAP1B / RFU, RFX7 / Fold change vs veh, RFX7 / RFU, GTPBP10 / Fold change vs veh, GTPBP10 / RFU, CNEP1R1 / Fold change vs veh, CNEP1R1 / RFU, BIVM-ERCC5 /// ERCC5 / Fold change vs veh, BIVM-ERCC5 /// ERCC5 / RFU, ILF3 / Fold change vs veh, ILF3 / RFU 11762660_at / Fold change /veh 11762660_at / RFU VCAN (11757783_s_at) / Fold change /veh VCAN (11757783_s_at) / RFU DDX43 (11728927_at) / Fold change /veh DDX43 (11728927_at) / RFU KRT8 (11758188_x_at) / Fold change /veh KRT8 (11758188_x_at) / RFU NKD1 (11759106_at) / Fold change /veh NKD1 (11759106_at) / RFU SRD5A1 (11742802_a_at) / Fold change /veh SRD5A1 (11742802_a_at) / RFU TPSAB1 /// TPSB2 (11721975_s_at) / Fold change /veh TPSAB1 /// TPSB2 (11721975_s_at) / RFU GSTM3 (11746129_a_at) / Fold change /veh GSTM3 (11746129_a_at) / RFU IL23R (11737362_x_at) / Fold change /veh IL23R (11737362_x_at) / RFU TMEM51 (11727254_a_at) / Fold change /veh TMEM51 (11727254_a_at) / RFU PIWIL2 (11732686_x_at) / Fold change /veh PIWIL2 (11732686_x_at) / RFU ORM1 (11744905_x_at) / Fold change /veh ORM1 (11744905_x_at) / RFU CCDC152 (11743942_at) / Fold change /veh CCDC152 (11743942_at) / RFU ECM1 (11717891_a_at) / Fold change /veh ECM1 (11717891_a_at) / RFU IL23R (11748794_a_at) / Fold change /veh IL23R (11748794_a_at) / RFU TNFAIP8L3 (11732012_x_at) / Fold change /veh TNFAIP8L3 (11732012_x_at) / RFU MBOAT4 (11741988_at) / Fold change /veh MBOAT4 (11741988_at) / RFU 11764193_at / Fold change /veh 11764193_at / RFU TMEM53 (11763286_at) / Fold change /veh TMEM53 (11763286_at) / RFU MAGEB2 (11727129_at) / Fold change /veh MAGEB2 (11727129_at) / RFU TMEM200A (11744735_a_at) / Fold change /veh TMEM200A (11744735_a_at) / RFU CCDC152 (11751479_a_at) / Fold change /veh CCDC152 (11751479_a_at) / RFU FAM211A (11726209_a_at) / Fold change /veh FAM211A (11726209_a_at) / RFU RGS16 (11746705_a_at) / Fold change /veh RGS16 (11746705_a_at) / RFU VCAN (11755009_s_at) / Fold change /veh VCAN (11755009_s_at) / RFU RHOB (11743442_s_at) / Fold change /veh RHOB (11743442_s_at) / RFU RGS16 (11720943_a_at) / Fold change /veh RGS16 (11720943_a_at) / RFU RGS16 (11720944_at) / Fold change /veh RGS16 (11720944_at) / RFU, VPS4B / Fold change vs veh, VPS4B / RFU, CREB1 / Fold change vs veh, CREB1 / RFU, DNAJC13 / Fold change vs veh, DNAJC13 / RFU, GNAQ / Fold change vs veh, GNAQ / RFU, CDK5R1 / Fold change vs veh, CDK5R1 / RFU, ZRANB3 / Fold change vs veh, ZRANB3 / RFU, CUL4A / Fold change vs veh, CUL4A / RFU, CCNY / Fold change vs veh, CCNY / RFU, UFL1 / Fold change vs veh, UFL1 / RFU, COG3 / Fold change vs veh, COG3 / RFU, DIAPH2 / Fold change vs veh, DIAPH2 / RFU, SKA2 / Fold change vs veh, SKA2 / RFU, AFF3 / Fold change vs veh, AFF3 / RFU, LMF1 / Fold change vs veh, LMF1 / RFU, IPO11 / Fold change vs veh, IPO11 / RFU, DFFB / Fold change vs veh, DFFB / RFU, FOXP1 / Fold change vs veh, FOXP1 / RFU, CARD8 / Fold change vs veh, CARD8 / RFU, STRN3 / Fold change vs veh, STRN3 / RFU, ADK / Fold change vs veh, ADK / RFU, RASSF2 / Fold change vs veh, RASSF2 / RFU, WIPF1 / Fold change vs veh, WIPF1 / RFU, LARP1B / Fold change vs veh, LARP1B / RFU, RASA1 / Fold change vs veh, RASA1 / RFU, RB1 / Fold change vs veh, RB1 / RFU, PPFIA1 / Fold change vs veh, PPFIA1 / RFU, MAT2A / Fold change vs veh, MAT2A / RFU, CCT5 / Fold change vs veh, CCT5 / RFU, WDR92 / Fold change vs veh, WDR92 / RFU, CUX1 / Fold change vs veh, CUX1 / RFU, TTC7A / Fold change vs veh, TTC7A / RFU, TMEM135 / Fold change vs veh, TMEM135 / RFU, DEPTOR / Fold change vs veh, DEPTOR / RFU, CPM / Fold change vs veh, CPM / RFU, DNAJB6 / Fold change vs veh, DNAJB6 / RFU, CACNA2D3 / Fold change vs veh, CACNA2D3 / RFU, DTX4 / Fold change vs veh, DTX4 / RFU, TFCP2 / Fold change vs veh, TFCP2 / RFU, GMCL1 /// GMCL1P1 / Fold change vs veh, GMCL1 /// GMCL1P1 / RFU, AEBP2 / Fold change vs veh, AEBP2 / RFU, SNHG1 /// SNORD22 /// SNORD25 /// SNORD26 /// SNORD27 /// SNORD28 /// SNORD29 /// SNORD31 / Fold change vs veh, SNHG1 /// SNORD22 /// SNORD25 /// SNORD26 /// SNORD27 /// SNORD28 /// SNORD29 /// SNORD31 / Fold change (Aza/veh), C12orf56 (ProbeSet 11735607_a_at) / Fold change (ACY-1035/veh), C12orf56 (ProbeSet 11735607_a_at) / Fold change (Aza/veh), FGFR1OP (ProbeSet 11751329_s_at) / Fold change (ACY-1035/veh), FGFR1OP (ProbeSet 11751329_s_at) / Fold change (Aza/veh), VPS36 (ProbeSet 11739960_a_at) / Fold change (ACY-1035/veh), VPS36 (ProbeSet 11739960_a_at) / RFU SYPL1 (11715823_x_at) / Fold change /veh SYPL1 (11715823_x_at) / RFU IGFBP7 (11715501_s_at) / Fold change /veh IGFBP7 (11715501_s_at) / RFU REEP3 (11722064_at) / Fold change /veh REEP3 (11722064_at) / RFU IGLL1 (11728026_x_at) / Fold change /veh IGLL1 (11728026_x_at): dose or concentration left out as unconfirmed
Conditions: ProbeSet 11741070_a_at; LIST B

## Nc1ccc(-c2cccs2)cc1NC(=O)c1ccc2c(c1)cc(C1CC1)n2CCN1CCOCC1 [ACY-1035]
  RFU, ZNF146: 2312.59 RFU
